The values that follow come from article PMC8933034, “6-Amino-2,4,5-trimethylpyridin-3-ol and 2-amino-4,6-dimethylpyrimidin-5-ol derivatives as selective fibroblast growth factor receptor 4 inhibitors: design, synthesis, molecular docking, and anti-hepatocellular carcinoma efficacy evaluation” (Journal of Enzyme Inhibition and Medicinal Chemistry, 2022).

Values joined by “and” are separate entries in the source; they are usually repeats but may differ in a detail not shown here. Equal entries are not always repeated.

One data set concerns the target T1, human FGFR4 kinase (Homo sapiens, UniProt P22455).
T1 construct: purchased Reaction Biology Corporation (Malvern, PA, USA), contract assay service
Briefly: FGFR4 kinase assay (Kinase HotSpot, Reaction Biology Corp.). Type of data set: biochemical. As to conditions: for inhibition at 0.01 µM: 0.01 μM concentration, two independent experiments; for inhibition at 1 µM: fixed concentration 1 μM, mean of two independent experiments. The method, then:
A FGFR4 kinase assay was performed at the Reaction Biology Corporation (Malvern, PA, USA) using a Kinase HotSpotSM assay platform (www.reactionbiology.com, last accessed at 19/10/2020). Briefly, human FGFR4 kinase (5–10 mU), peptide substrate, and poly[Glu:Tyr] (4:1) 0.2 mg/ml were prepared in a reaction buffer with a final volume of 25 µL. The compounds were delivered into the reaction, followed ∼20 min. later by the addition of a mixture of ATP and [γ-^33P-ATP] (specific activity approx. 500 cpm/pmol, concentration as required) to a final concentration of 10 µM. After incubation for 40 min. at 25 °C, the reaction was stopped by the addition of a 3% phosphoric acid solution. Then, the reaction was spotted onto a P30 filtermat, and unbound phosphate was removed by washing 3 times for 5 min in 75 mM phosphoric acid and once in methanol prior to drying and scintillation counting. […] IC50 values and curve fits were obtained using GraphPad Prism 5 software.

A further data set relates to Hep3B cells. Briefly: Cell proliferation assay (MTT), Hep3B. The note with it: for IC50: Homo sapiens, Hep3B, 48 h treatment, mean ± SEM of three independent experiments. Type of data set: cell-based, human. The procedure: (§1) Human HCC cell lines, Hep3B and Huh7 were obtained from American Type Culture Collection (ATCC, Manassas, VA, USA). An H6c7 human normal pancreatic duct epithelial cell line was purchased from Kerafast (Boston, MA, USA). Hep3B and Huh7 cells were cultured in Dulbecco′s Modified Eagle′s Medium (DMEM) (Hyclone, Logan, UT, USA). The media were supplemented with 10% foetal bovine serum (FBS) (Gibco/ThermoFisher Scientific) and 1% penicillin/streptomycin (Gibco/ThermoFisher Scientific). H6c7 cells were maintained in a keratinocyte serum-free medium supplemented with a recombinant […] growth factor (rEGF) and bovine pituitary extract (Gibco/ThermoFisher Scientific). All the cells were incubated at 37 °C under a 5% CO2 atmosphere.
(§2) Cells were seeded at a density of 5000 cells/well in a 96-well plate. After overnight incubation, the cells were serum-starved using 1% FBS for 24 h. The next day, the cells were pre-treated with the different concentrations (0.1, 1, 3, 10, 30, 100 µM) of drugs for 1 h prior to the treatment with serum (10% FBS). After 48 h of incubation, 3–(4,5-dimethylthiazol-2-yl)-2,5-diphenyltetrazolium bromide (MTT) dye solution was added and incubated for 4 h. Next, DMSO was added, and after 30 min, the colour intensities were measured using a microplate reader (Versamax, Molecular Devices, Inc., USA) at 490 nm.

A further data set concerns Huh7 cells. As to the kind of experiment: Cell proliferation assay (MTT), Huh7. The format is cell-based, human. The note with it: for IC50: Homo sapiens, Huh-7, 48 h treatment, mean ± SEM of three independent experiments; for difference of anti-proliferative activity between Hep3B and Huh7: Huh7 versus Hep3B, 48 h. The procedure:
as §1, §2

The nature of data set [1]: Cytotoxicity assay (MTT), H6c7. The format is cell-based. As to conditions: human, H6c7 normal pancreatic duct epithelial cells, 48 h treatment, mean ± SEM of three independent experiments, read-out: IC50 on cell viability (cytotoxicity), H6c7. The method, then:
as §1
The cytotoxicity of the compounds was assessed by measuring the cell viability decrease using the MTT staining method. Briefly, H6c7 cells were seeded in a 96-well plate (Falcon, USA) at a density of 4 × 10^4 cells per well in keratinocyte serum-free medium. After 24 h, Cells were incubated with different concentrations (0.1, 1, 3, 10, 30, and 100) µM of each compound for 48 h, and the cell viability was measured using MTT assay. Optical density was measured at 540 nm using a microplate reader (BMG LABTECH).

In data set [2] the test system is Hep3B-xenografted CAM tumour model. As to the kind of experiment: CAM (chick chorioallantoic membrane) tumour model implanted with Hep3B cells. Type of data set: in vivo. The method, then: Fertile chicken eggs were purchased from Byeolbichon Farm (Gyeongbuk, South Korea) and incubated at 37 °C and under 55% relative humidity. On the 9th day of egg incubation (post-fertilization), false air sac was generated on the relatively flat side of eggs by a negative pressure technique. A small window (1 cm^2) was created on the false air sac surface of the eggs by separating the shell and membrane beneath (technique) using a grinding wheel (Dremel, Racine, WI, USA). Next, Hep3B cells were loaded at a density of 1.5 × 10^6 cells/CAM with or without compound. After four days of drug treatment, the tumour weight, number of vessel branch points within the tumour region were analysed.

In the next data set the target is T2, FGFR1 (Homo sapiens, UniProt P11362).
T2 construct: purchased Promega, WI, USA
T2 sequence (P11362 22-822): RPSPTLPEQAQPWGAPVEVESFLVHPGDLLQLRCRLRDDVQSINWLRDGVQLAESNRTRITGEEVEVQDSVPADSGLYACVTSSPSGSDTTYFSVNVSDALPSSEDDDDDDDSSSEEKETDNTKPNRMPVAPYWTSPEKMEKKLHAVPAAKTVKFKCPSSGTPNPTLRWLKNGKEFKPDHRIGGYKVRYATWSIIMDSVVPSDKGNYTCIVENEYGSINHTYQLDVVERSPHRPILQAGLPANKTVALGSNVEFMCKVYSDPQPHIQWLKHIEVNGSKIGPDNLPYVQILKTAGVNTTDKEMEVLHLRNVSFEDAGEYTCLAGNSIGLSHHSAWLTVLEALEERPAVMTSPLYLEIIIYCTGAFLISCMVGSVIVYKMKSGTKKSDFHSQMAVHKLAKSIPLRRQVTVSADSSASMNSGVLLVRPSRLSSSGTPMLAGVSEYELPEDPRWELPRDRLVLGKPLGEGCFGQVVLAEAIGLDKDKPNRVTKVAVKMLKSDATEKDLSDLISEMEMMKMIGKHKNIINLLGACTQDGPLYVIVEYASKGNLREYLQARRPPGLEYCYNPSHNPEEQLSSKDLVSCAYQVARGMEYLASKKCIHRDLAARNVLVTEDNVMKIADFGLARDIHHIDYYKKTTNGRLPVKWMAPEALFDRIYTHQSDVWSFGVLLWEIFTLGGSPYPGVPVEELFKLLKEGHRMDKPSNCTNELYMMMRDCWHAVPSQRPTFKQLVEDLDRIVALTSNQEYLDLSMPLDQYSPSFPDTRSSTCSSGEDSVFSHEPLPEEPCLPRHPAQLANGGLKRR
Briefly: FGFR1 ADP-glow kinase assay. The format is biochemical. The procedure: (§3) FGFR1 ∼ 3 kinase assays were performed using the adenosine diphosphate (ADP)-glow kinase assay kit of FGFR1, FGFR2, and FGFR3 kinase enzyme systems (Promega, WI, USA) in accordance with the manufacturer’s instructions. […] The reaction was carried out at 25 °C for 1 h in a total volume of 25 µL. Subsequently, 25 µL of ADP-Glow reagent was added to the mixture, and then incubated for 40 min at 25 °C. After the addition of 50 µL of ADP detection reagents for 30 min at 25 °C, luminescence was measured using a Fluostar Omega microplate reader (BMG LABTECH GmbH, Ortenberg, Germany).
A general note: ADP-Glo turns the ADP formed in a reaction into a luminescent signal.

A further data set addresses T3, FGFR2 (Homo sapiens, UniProt P21802).
T3 construct: purchased Promega, WI, USA
Briefly: FGFR2 ADP-glow kinase assay. The format is biochemical. The procedure: as §3

In another data set the target is T4, FGFR3 (Homo sapiens, UniProt P22607).
T4 construct: purchased Promega, WI, USA
T4 sequence (P22607 23-806): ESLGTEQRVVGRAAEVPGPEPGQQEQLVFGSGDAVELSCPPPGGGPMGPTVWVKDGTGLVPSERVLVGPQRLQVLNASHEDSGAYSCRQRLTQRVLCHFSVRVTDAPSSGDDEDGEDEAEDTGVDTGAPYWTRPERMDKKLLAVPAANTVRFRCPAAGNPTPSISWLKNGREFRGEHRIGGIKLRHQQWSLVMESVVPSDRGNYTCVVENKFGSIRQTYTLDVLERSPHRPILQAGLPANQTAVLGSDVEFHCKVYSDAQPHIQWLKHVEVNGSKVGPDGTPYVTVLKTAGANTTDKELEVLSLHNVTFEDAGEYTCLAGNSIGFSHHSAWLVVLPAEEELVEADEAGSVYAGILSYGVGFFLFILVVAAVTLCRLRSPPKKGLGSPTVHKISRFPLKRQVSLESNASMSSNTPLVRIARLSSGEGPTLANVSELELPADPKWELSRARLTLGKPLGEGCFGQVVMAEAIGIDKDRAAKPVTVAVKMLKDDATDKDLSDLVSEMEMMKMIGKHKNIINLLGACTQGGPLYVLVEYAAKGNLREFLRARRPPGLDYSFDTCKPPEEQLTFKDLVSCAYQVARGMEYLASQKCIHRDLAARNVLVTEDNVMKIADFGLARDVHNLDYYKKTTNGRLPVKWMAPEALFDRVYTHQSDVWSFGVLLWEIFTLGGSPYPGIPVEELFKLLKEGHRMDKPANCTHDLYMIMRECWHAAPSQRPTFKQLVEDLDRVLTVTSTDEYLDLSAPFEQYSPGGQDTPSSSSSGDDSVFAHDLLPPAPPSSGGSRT
Briefly: FGFR3 ADP-glow kinase assay. The format is biochemical. The method, then: as §3

T1 sequence (P22455 22-802): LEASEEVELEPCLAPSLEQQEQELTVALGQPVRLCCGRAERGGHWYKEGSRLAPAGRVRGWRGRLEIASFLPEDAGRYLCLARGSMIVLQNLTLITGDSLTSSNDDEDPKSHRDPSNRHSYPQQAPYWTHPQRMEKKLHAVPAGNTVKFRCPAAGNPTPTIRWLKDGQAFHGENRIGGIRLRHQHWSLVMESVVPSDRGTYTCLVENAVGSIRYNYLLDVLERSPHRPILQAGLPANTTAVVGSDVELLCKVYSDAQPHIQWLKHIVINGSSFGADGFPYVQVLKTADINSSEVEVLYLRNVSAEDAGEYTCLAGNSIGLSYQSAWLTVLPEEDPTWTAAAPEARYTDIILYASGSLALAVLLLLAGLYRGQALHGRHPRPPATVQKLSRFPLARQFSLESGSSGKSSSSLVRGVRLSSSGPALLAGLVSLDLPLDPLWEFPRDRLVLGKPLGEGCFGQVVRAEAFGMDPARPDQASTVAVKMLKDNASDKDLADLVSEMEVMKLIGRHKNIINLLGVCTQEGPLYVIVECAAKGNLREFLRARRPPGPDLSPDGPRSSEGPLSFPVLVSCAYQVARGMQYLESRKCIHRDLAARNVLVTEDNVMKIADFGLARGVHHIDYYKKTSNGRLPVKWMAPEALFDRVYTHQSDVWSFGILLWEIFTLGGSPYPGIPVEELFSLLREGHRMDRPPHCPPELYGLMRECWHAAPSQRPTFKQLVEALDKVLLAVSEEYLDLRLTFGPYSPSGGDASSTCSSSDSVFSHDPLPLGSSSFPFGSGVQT
T3 sequence (P21802 22-821): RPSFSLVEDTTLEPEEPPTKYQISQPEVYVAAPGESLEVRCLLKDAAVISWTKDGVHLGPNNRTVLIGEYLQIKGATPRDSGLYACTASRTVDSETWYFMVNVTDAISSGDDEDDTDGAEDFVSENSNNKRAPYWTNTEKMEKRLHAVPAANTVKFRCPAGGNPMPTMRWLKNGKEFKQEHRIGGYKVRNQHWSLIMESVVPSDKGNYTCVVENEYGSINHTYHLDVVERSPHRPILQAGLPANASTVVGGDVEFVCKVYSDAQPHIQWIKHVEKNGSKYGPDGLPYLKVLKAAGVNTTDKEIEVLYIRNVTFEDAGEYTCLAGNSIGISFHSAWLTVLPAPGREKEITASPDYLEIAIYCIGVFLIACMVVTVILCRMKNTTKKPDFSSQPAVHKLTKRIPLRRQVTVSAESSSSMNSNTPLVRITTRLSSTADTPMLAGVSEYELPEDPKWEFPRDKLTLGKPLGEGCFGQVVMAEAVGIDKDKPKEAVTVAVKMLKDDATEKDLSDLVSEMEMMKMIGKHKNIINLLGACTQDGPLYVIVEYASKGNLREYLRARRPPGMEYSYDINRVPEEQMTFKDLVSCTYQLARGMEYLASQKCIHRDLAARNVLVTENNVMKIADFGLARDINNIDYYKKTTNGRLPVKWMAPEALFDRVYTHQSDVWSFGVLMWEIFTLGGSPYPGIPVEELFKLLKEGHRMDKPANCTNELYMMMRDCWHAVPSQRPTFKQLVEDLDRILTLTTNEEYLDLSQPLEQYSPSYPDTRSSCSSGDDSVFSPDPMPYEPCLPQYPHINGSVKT

By inhibition is commonly meant the relative decrease from the control value, in per cent. Read a low inhibition as a weak effect. Consider `C=CC(=O)Nc1cccc(C)c1Nc1ncc(OCc2c(F)c(OC)cc(OC)c2F)cn1` [Compound 42, reference compound], for which at 0.01 µM the inhibition against human FGFR4 kinase was 87.4%.

Regarding `C=CC(=O)Nc1ccc(OC)cc1Nc1nc(C)c(OCc2c(F)c(OC)cc(OC)c2F)c(C)c1C` [Compound 6U], 1 µM produced 10.1% inhibition on human FGFR4 kinase.

As for `C=CC(=O)Nc1cn(C)nc1Nc1nc(C)c(OCc2c(Cl)c(OC)cc(OC)c2Cl)c(C)n1` [Compound 6D], the inhibition at 1 µM on human FGFR4 kinase worked out at 8%.

The compound `C=CC(=O)Nc1cn(C)nc1Nc1nc(C)c(OCc2c(F)c(OC)cc(OC)c2F)c(C)n1` [Compound 6C] registered an inhibition at 1 µM at human FGFR4 kinase of 22%.

At human FGFR4 kinase, `C=CC(=O)Nc1cccc(C)c1Nc1nc(C)c(OCc2c(Cl)c(OC)cc(OC)c2Cl)c(C)n1` [Compound 6H] returned an inhibition at 1 µM of 14%.

The compound `C=CC(=O)Nc1ccc(OC)cc1Nc1nc(C)c(OCc2c(Cl)c(OC)cc(OC)c2Cl)c(C)n1` [Compound 6X] showed an inhibition at 1 µM at human FGFR4 kinase of 6.3%.

On human FGFR4 kinase, `C=CC(=O)Nc1cccc(OC)c1Nc1nc(C)c(OCc2c(F)c(OC)cc(OC)c2F)c(C)c1C` [Compound 6Q] returned an inhibition at 1 µM of 10.3%.

Consider `C=CC(=O)Nc1cccc(OC)c1Nc1nc(C)c(OCc2c(Cl)c(OC)cc(OC)c2Cl)c(C)c1C` [Compound 6R], for which the inhibition at 1 µM at human FGFR4 kinase was found to be 6.9%.

In turn, `C=CC(=O)Nc1ccc(Nc2nc(C)c(OCc3c(F)c(OC)cc(OC)c3F)c(C)n2)c(C)c1` [Compound 6K] displayed an inhibition at 1 µM against human FGFR4 kinase of 4.9%.

For `C=CC(=O)Nc1cc(F)cc(Cl)c1Nc1nc(C)c(OCc2c(Cl)c(OC)cc(OC)c2Cl)c(C)n1` [Compound 6P], at 1 µM the inhibition against human FGFR4 kinase was 12.8%.

Regarding `C=CC(=O)Nc1ccc(Nc2nc(C)c(OCc3c(F)c(OC)cc(OC)c3F)c(C)c2C)c(C)c1` [Compound 6I], the inhibition at 1 µM on human FGFR4 kinase came to 9.7%.

`C=CC(=O)Nc1ccc(Nc2nc(C)c(OCc3c(Cl)c(OC)cc(OC)c3Cl)c(C)c2C)c(C)c1` [Compound 6J] gave an inhibition at 1 µM on human FGFR4 kinase of 5.9%.

Regarding `C=CC(=O)Nc1cn(C)nc1Nc1nc(C)c(OCc2c(Cl)c(OC)cc(OC)c2Cl)c(C)c1C` [Compound 6B], the inhibition at 1 µM at human FGFR4 kinase is 16.9%.

In general, IC50 refers to the concentration at which inhibition is half-maximal. With `C=CC(=O)Nc1cccc(C)c1Nc1ncc2cc(-c3c(Cl)c(OC)cc(OC)c3Cl)ccc2n1` [Compound 1, reference compound], the IC50 in the data set on Hep3B cells is 0.9 ± 0.1 µM. For the same compound, in the data set with Huh7 cells, the IC50 was 7.1 ± 5 µM; the “difference of anti-proliferative activity between Hep3B and Huh7” value is given as 7 fold. In addition, in data set [1], the IC50 at 48 h came out at 13.4 µM. Moreover, the tumour growth entry in data set [2] (four days after Hep3B xenograft on CAM) is “dose-dependently inhibited”. Also, in data set [2] (number of new vessel branches on CAM, four days), the tumour-induced angiogenesis entry is listed as “significantly blocked”.

Compound `C=CC(=O)Nc1ccc(Nc2nc(C)c(OCc3c(Cl)c(OC)cc(OC)c3Cl)c(C)n2)c(C)c1` [Compound 6L] yielded an inhibition at 1 µM against human FGFR4 kinase of 3.6%.

With `C=CC(=O)Nc1ccc(OC)cc1Nc1nc(C)c(OCc2c(F)c(OC)cc(OC)c2F)c(C)n1` [Compound 6W], at 1 µM the inhibition against human FGFR4 kinase was 12.2%.

With `C=CC(=O)Nc1cc(F)cc(Cl)c1Nc1nc(C)c(OCc2c(F)c(OC)cc(OC)c2F)c(C)c1C` [Compound 6M], testing at 1 µM against human FGFR4 kinase gave an inhibition of 9.9%.

`C=CC(=O)Nc1ccc(N2CCN(CC)CC2)cc1Nc1nc(C)c(OCc2c(Cl)c(OC)cc(OC)c2Cl)c(C)c1C` [Compound 6Z] displayed an inhibition at 1 µM against human FGFR4 kinase of 2.7%.

Regarding `C=CC(=O)Nc1cccc(C)c1Nc1nc(C)c(OCc2c(F)c(OC)cc(OC)c2F)c(C)n1` [Compound 6G], at human FGFR4 kinase, at 0.01 µM the inhibition was 3.3% and the inhibition at 1 µM was determined as 24.8%.

For `C=CC(=O)Nc1cn(C)nc1Nc1nc(C)c(OCc2c(F)c(OC)cc(OC)c2F)c(C)c1C` [Compound 6A], at FGFR1 (ratio of FGFR1 to FGFR4 inhibitory activity), the “Ratio against FGFR4 (FGFR1)” value amounted to 8.2. Further, the IC50 on FGFR1 (three independent experiments) is 1.56 µM and 1.57 µM; with Hep3B cells, 25.2 µM; on human FGFR4 kinase (7 different concentrations, three independent experiments), 0.19 µM; in the data set with Huh7 cells it was 21.3 ± 6 µM; against FGFR2 (three independent experiments), 1.15 µM; at FGFR3 (three independent experiments), 0.277 µM. For the same compound, in the data set on Hep3B cells (48 h), the “fold less potent than compound 1, Hep3B IC50” value is recorded as 28 fold. The inhibition at 1 µM against human FGFR4 kinase stood at 62.8%. Also, the “difference of anti-proliferative activity between Hep3B and Huh7” value with Huh7 cells was “did not show a significant difference”. For the same compound, the IC50 at 48 h in data set [1] was above 100 µM. Also, at FGFR2 (ratio of FGFR2 to FGFR4 inhibitory activity), the “Ratio against FGFR4 (FGFR2)” value amounted to 6.0. The “Ratio against FGFR4 (FGFR3)” value at FGFR3 (ratio of FGFR3 to FGFR4 inhibitory activity) stood at 1.5.

Regarding `C=CC(=O)Nc1ccc(OC)cc1Nc1nc(C)c(OCc2c(Cl)c(OC)cc(OC)c2Cl)c(C)c1C` [Compound 6V], testing at 1 µM on human FGFR4 kinase gave an inhibition of 7.7%.

Take `C=CC(=O)Nc1cccc(C)c1Nc1nc(C)c(OCc2c(F)c(OC)cc(OC)c2F)c(C)c1C` [Compound 6E]: at human FGFR4 kinase, at 0.01 µM the inhibition was 5% and 1 µM produced 7.2% inhibition.

`C=CC(=O)Nc1cccc(OC)c1Nc1nc(C)c(OCc2c(F)c(OC)cc(OC)c2F)c(C)n1` [Compound 6S]: on human FGFR4 kinase, testing at 1 µM gave an inhibition of 49.3%.

`C=CC(=O)Nc1ccc(N2CCN(CC)CC2)cc1Nc1nc(C)c(OCc2c(Cl)c(OC)cc(OC)c2Cl)c(C)n1` [Compound 6BB]: at 1 µM the inhibition against human FGFR4 kinase was 5.4%.

Take `C=CC(=O)Nc1cccc(C)c1Nc1nc(C)c(OCc2c(Cl)c(OC)cc(OC)c2Cl)c(C)c1C` [Compound 6F]: 1 µM produced 5.4% inhibition against human FGFR4 kinase.

Take `C=CC(=O)Nc1cccc(C)c1Nc1ccc(OCc2c(F)c(OC)cc(OC)c2F)cn1` [Compound 41, reference compound]: testing at 0.01 µM against human FGFR4 kinase gave an inhibition of 91%.

`C=CC(=O)Nc1cc(F)cc(Cl)c1Nc1nc(C)c(OCc2c(Cl)c(OC)cc(OC)c2Cl)c(C)c1C` [Compound 6N] returned an inhibition at 1 µM on human FGFR4 kinase of 11.9%.

Take `C=CC(=O)Nc1ccc(N2CCN(CC)CC2)cc1Nc1nc(C)c(OCc2c(F)c(OC)cc(OC)c2F)c(C)n1` [Compound 6AA]: the inhibition at 1 µM on human FGFR4 kinase was 10.3%.

`C=CC(=O)Nc1cccc(OC)c1Nc1nc(C)c(OCc2c(Cl)c(OC)cc(OC)c2Cl)c(C)n1` [Compound 6T] registered an inhibition at 1 µM on human FGFR4 kinase of 11%.

`C=CC(=O)Nc1ccc(N2CCN(CC)CC2)cc1Nc1nc(C)c(OCc2c(F)c(OC)cc(OC)c2F)c(C)c1C` [Compound 6Y] displayed an inhibition at 1 µM on human FGFR4 kinase of 10.4%.
